From patent US20240148709A1, “METHODS OF TREATING EYE PAIN AND EYE DISORDERS” (Aisa Pharma, Inc., priority 2022, published 2024)
Values joined by “and” are separate entries in the source; they are usually repeats but may differ in a detail not shown here. Identical values can stand only once.

System: participants with SSc-RP
Test: Scleroderma Health Assessment Questionnaire (SHAQ), Phase 2a study Part A
Assay type: in vivo, human
Method: Part A—double-blind, placebo-controlled, parallel-group, dose selection, will assess the safety and efficacy of two doses of cilnidipine (10 mg and 20 mg), alone and in combination with tadalafil. A total of 36 participants will be randomized to one of six prespecified treatment arms. Refer to FIG. 1 for treatment arms in Part A of the study. Dosing last for 12 (±2) days in which participants will self-administer daily doses of assigned treatment in the morning. Each participant will take one capsule and one tablet to blind the active therapy being received.
The standard, validated, patient reported outcome measures tool for SSc patients, the SHAQ, will be collected at the time points specified in the study schedules (FIG. 2 and FIGS. 3A and 3B) to assess the participant's quality of life. The SHAQ includes a Raynaud's VAS that will also be reported separately.
Results: Patients in the study were administered the Scleroderma Health Assessment Questionnaire (SHAQ) at the time of study entry and during clinic visits following the treatment period. The study is a two-part, parallel arm design, prospective, double-blind, randomized study conducted in Australia (Flinders Medical Center). 27 patients were randomized into the first phase of the study, following which a DSMB meeting was held, which reviewed data on the primary study endpoint and key Raynaud's secondary endpoints. Data on the SHAQ was not available for the DSMB to review. The mITT population, in which any data was available post treatment was 24 patients was the analysis population for this first part of the study. The second part (i.e., part B) of the study will randomize 36 patients in a double blind, randomized, prospective, placebo controlled, crossover study. In the first part (i.e., Part A) of the study for which data is presented, patients were randomized into 6 groups, cilnidipine at two doses (10 and 20 mg) alone and in combination with tadalafil 5 mg, tadalafil 5 mg alone, and placebo. […] The DSMB recommended that the study proceed into its double blind prospective cross overpowered second phase and compare cilnidipine 20 mg alone to placebo.

[1] = cilnidipine 20 mg arms (alone or + tadalafil 5 mg)

With `COCCOC(=O)C1=C(C)NC(C)=C(C(=O)OC/C=C/c2ccccc2)C1c1cccc([N+](=O)[O-])c1` (stereo not shown) [Cilnidipine, cilnidipine] the “SHAQ Visual Analog Scale-Breathing Problems, Change from Baseline, Q3” value [1] was 0.300, the “SHAQ Visual Analog Scale-Breathing Problems, In Clinic Visit (Day 12), Max” value [1] was 0.50 and the “SHAQ Visual Analog Scale-Breathing Problems, In Clinic Visit (Day 12), Mean (SD)” value [1] was 0.300 (0.2646). The “SHAQ Visual Analog Scale-Breathing Problems, In Clinic Visit (Day 12), Median” value [1] was 0.400, the “SHAQ Visual Analog Scale-Breathing Problems, In Clinic Visit (Day 12), Min” value [1] was 0.00 and the “SHAQ Visual Analog Scale-Breathing Problems, In Clinic Visit (Day 12), Q1” value [1] was 0.000. For the same compound, the “SHAQ Visual Analog Scale-Breathing Problems, In Clinic Visit (Day 12), Q3” value [1] was 0.500, the “SHAQ Visual Analog Scale-Breathing Problems, Percent Change from Baseline, Max” value [1] was 150.0% and the “SHAQ Visual Analog Scale-Breathing Problems, Percent Change from Baseline, Mean (SD)” value [1] was −5.56 (135.742) %. The “SHAQ Visual Analog Scale-Breathing Problems, Percent Change from Baseline, Median” value [1] was −66.67%, the “SHAQ Visual Analog Scale-Breathing Problems, Percent Change from Baseline, Min” value [1] was −100.0% and the “SHAQ Visual Analog Scale-Breathing Problems, Percent Change from Baseline, Q1” value [1] was −100.00%. The “SHAQ Visual Analog Scale-Breathing Problems, Percent Change from Baseline, Q3” value [1] was 150.00%, the “SHAQ Visual Analog Scale-Intestinal Problems, Change from Baseline, Max” value [1] was 0.60 and the “SHAQ Visual Analog Scale-Intestinal Problems, Change from Baseline, Mean (SD)” value [1] was 0.300 (0.3000). For the same compound, the “SHAQ Visual Analog Scale-Intestinal Problems, Change from Baseline, Median” value [1] was 0.300, the “SHAQ Visual Analog Scale-Intestinal Problems, Change from Baseline, Min” value [1] was 0.00 and the “SHAQ Visual Analog Scale-Intestinal Problems, Change from Baseline, Q1” value [1] was 0.000. The “SHAQ Visual Analog Scale-Intestinal Problems, Change from Baseline, Q3” value [1] was 0.600, the “SHAQ Visual Analog Scale-Intestinal Problems, In Clinic Visit (Day 12), Max” value [1] was 2.10 and the “SHAQ Visual Analog Scale-Intestinal Problems, In Clinic Visit (Day 12), Mean (SD)” value [1] was 1.133 (1.0599). For the same compound, the “SHAQ Visual Analog Scale-Intestinal Problems, In Clinic Visit (Day 12), Median” value [1] was 1.300, the “SHAQ Visual Analog Scale-Intestinal Problems, In Clinic Visit (Day 12), Min” value [1] was 0.00 and the “SHAQ Visual Analog Scale-Intestinal Problems, In Clinic Visit (Day 12), Q1” value [1] was 0.000. The “SHAQ Visual Analog Scale-Intestinal Problems, In Clinic Visit (Day 12), Q3” value [1] was 2.100, the “SHAQ Visual Analog Scale-Intestinal Problems, Percent Change from Baseline, Max” value [1] was 40.0% and the “SHAQ Visual Analog Scale-Intestinal Problems, Percent Change from Baseline, Mean (SD)” value [1] was 35.00 (7.071) %. For the same compound, the “SHAQ Visual Analog Scale-Intestinal Problems, Percent Change from Baseline, Median” value [1] was 35.00%, the “SHAQ Visual Analog Scale-Intestinal Problems, Percent Change from Baseline, Min” value [1] was 30.0% and the “SHAQ Visual Analog Scale-Intestinal Problems, Percent Change from Baseline, Q1” value [1] was 30.00%. For the same compound, the “SHAQ Visual Analog Scale-Intestinal Problems, Percent Change from Baseline, Q3” value [1] was 40.00%, the “SHAQ Visual Analog Scale-Pain, Change from Baseline, Max” value [1] was −0.50 and the “SHAQ Visual Analog Scale-Pain, Change from Baseline, Mean (SD)” value [1] was −1.100 (0.7937) and −1.1 (0.79). For the same compound, the “SHAQ Visual Analog Scale-Pain, Change from Baseline, Median” value [1] was −0.800, the “SHAQ Visual Analog Scale-Pain, Change from Baseline, Min” value [1] was −2.00 and the “SHAQ Visual Analog Scale-Pain, Change from Baseline, Q1” value [1] was −2.000. For the same compound, the “SHAQ Visual Analog Scale-Pain, Change from Baseline, Q3” value [1] was −0.500, the “SHAQ Visual Analog Scale-Pain, In Clinic Visit (Day 12), Max” value [1] was 2.10 and the “SHAQ Visual Analog Scale-Pain, In Clinic Visit (Day 12), Mean (SD)” value [1] was 1.067 (0.9074). The “SHAQ Visual Analog Scale-Pain, In Clinic Visit (Day 12), Median” value [1] was 0.700, the “SHAQ Visual Analog Scale-Pain, In Clinic Visit (Day 12), Min” value [1] was 0.40 and the “SHAQ Visual Analog Scale-Pain, In Clinic Visit (Day 12), Q1” value [1] was 0.400. For the same compound, the “SHAQ Visual Analog Scale-Pain, In Clinic Visit (Day 12), Q3” value [1] was 2.100, the “SHAQ Visual Analog Scale-Pain, Percent Change from Baseline, Max” value [1] was −48.8% and the “SHAQ Visual Analog Scale-Pain, Percent Change from Baseline, Mean (SD)” value [1] was −52.56 (3.454) %. For the same compound, the “SHAQ Visual Analog Scale-Pain, Percent Change from Baseline, Median” value [1] was −53.33%, the “SHAQ Visual Analog Scale-Pain, Percent Change from Baseline, Min” value [1] was −55.6% and the “SHAQ Visual Analog Scale-Pain, Percent Change from Baseline, Q1” value [1] was −55.56%. The “SHAQ Visual Analog Scale-Pain, Percent Change from Baseline, Q3” value [1] was −48.78%, the “SHAQ Visual Analog Scale-Raynaud's, Change from Baseline, Max” value [1] was −0.30 and the “SHAQ Visual Analog Scale-Raynaud's, Change from Baseline, Median” value [1] was −1.100. The “SHAQ Visual Analog Scale-Raynaud's, Change from Baseline, Min” value [1] was −2.40, the “SHAQ Visual Analog Scale-Raynaud's, Change from Baseline, Q1” value [1] was −2.400 and the “SHAQ Visual Analog Scale-Raynaud's, Change from Baseline, Q3” value [1] was −0.300. For the same compound, the “SHAQ Visual Analog Scale-Raynaud's, In Clinic Visit (Day 12), Max” value [1] was 1.40, the “SHAQ Visual Analog Scale-Raynaud's, In Clinic Visit (Day 12), Mean (SD)” value [1] was 1.033 (0.4041) and the “SHAQ Visual Analog Scale-Raynaud's, In Clinic Visit (Day 12), Median” value [1] was 1.100. For the same compound, the “SHAQ Visual Analog Scale-Raynaud's, In Clinic Visit (Day 12), Min” value [1] was 0.60, the “SHAQ Visual Analog Scale-Raynaud's, In Clinic Visit (Day 12), Q1” value [1] was 0.600 and the “SHAQ Visual Analog Scale-Raynaud's, In Clinic Visit (Day 12), Q3” value [1] was 1.400. The “SHAQ Visual Analog Scale-Raynaud's, Percent Change from Baseline, Max” value [1] was −33.3%, the “SHAQ Visual Analog Scale-Raynaud's, Percent Change from Baseline, Mean (SD)” value [1] was −48.63 (18.070) % and the “SHAQ Visual Analog Scale-Raynaud's, Percent Change from Baseline, Median” value [1] was −44.00%. For the same compound, the “SHAQ Visual Analog Scale-Raynaud's, Percent Change from Baseline, Min” value [1] was −68.6%, the “SHAQ Visual Analog Scale-Raynaud's, Percent Change from Baseline, Q1” value [1] was −68.57% and the “SHAQ Visual Analog Scale-Raynaud's, Percent Change from Baseline, Q3” value [1] was −33.33%. For the same compound, the “SHAQ alternative disability index, Change from Baseline, Max” value [1] was 0.00, the “SHAQ alternative disability index, Change from Baseline, Mean (SD)” value [1] was −0.083 (0.0722) and the “SHAQ alternative disability index, Change from Baseline, Median” value [1] was −0.125. The “SHAQ alternative disability index, Change from Baseline, Min” value [1] was −0.13, the “SHAQ alternative disability index, Change from Baseline, Q1” value [1] was −0.125 and the “SHAQ alternative disability index, Change from Baseline, Q3” value [1] was 0.000. The “SHAQ alternative disability index, In Clinic Visit (Day 12), Max” value [1] was 0.25, the “SHAQ alternative disability index, In Clinic Visit (Day 12), Mean (SD)” value [1] was 0.125 (0.1250) and the “SHAQ alternative disability index, In Clinic Visit (Day 12), Median” value [1] was 0.125. The “SHAQ alternative disability index, In Clinic Visit (Day 12), Min” value [1] was 0.00, the “SHAQ alternative disability index, In Clinic Visit (Day 12), Q1” value [1] was 0.000 and the “SHAQ alternative disability index, In Clinic Visit (Day 12), Q3” value [1] was 0.250. For the same compound, the “SHAQ alternative disability index, Percent Change from Baseline, Max” value [1] was −33.3%, the “SHAQ alternative disability index, Percent Change from Baseline, Mean (SD)” value [1] was −41.67 (11.785) % and the “SHAQ alternative disability index, Percent Change from Baseline, Median” value [1] was −41.67%. For the same compound, the “SHAQ alternative disability index, Percent Change from Baseline, Min” value [1] was −50.0%, the “SHAQ alternative disability index, Percent Change from Baseline, Q1” value [1] was −50.00% and the “SHAQ alternative disability index, Percent Change from Baseline, Q3” value [1] was −33.33%. For the same compound, the “mean decrease in patient reported disease severity on the SHAQ” value (pooled cilnidipine 10 mg or 20 mg (n=7)) was 60%.
